# In the supplement of paper PMC10307832:
# Experiments:
# Experiment in all cases: relative viability (nuclei count vs DMSO), 5 days (fraction); higher = more cells survive
# Selisistat + Alpelisib = compound: C1CC(C2=C(C1)C3=C(N2)C=CC(=C3)Cl)C(=O)N [Selisistat] + Cc1nc(NC(=O)N2CCC[C@H]2C(N)=O)sc1-c1ccnc(C(C)(C)C(F)(F)F)c1 [Alpelisib] (partner 2 µM)
# Outline: (§1)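 Lung cancer cell lines were pin-tool dosed in 1536-well plates on the day after seeding, with either a lone drug or a fixed anchor-drug dose plus five library-drug doses (not always all listed) in √10 steps. Nuclei were counted on 4× images after 5 days. Relative viability is the ratio of treated-well to vehicle-well nuclei counts, with each value a median of duplicate plates.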
# Selisistat + Dasatinib = compound: C1CC(C2=C(C1)C3=C(N2)C=CC(=C3)Cl)C(=O)N [Selisistat] + Cc1nc(Nc2ncc(C(=O)Nc3c(C)cccc3Cl)s2)cc(N2CCN(CCO)CC2)n1 [Dasatinib] (partner 0.075 µM)
# Outline: as §1
# Serdemetan + Foretinib = compound: c1ccc2c(CCNc3ccc(Nc4ccncc4)cc3)c[nH]c2c1 [Serdemetan] + COc1cc2c(Oc3ccc(NC(=O)C4(C(=O)Nc5ccc(F)cc5)CC4)cc3F)ccnc2cc1OCCCN1CCOCC1 [Foretinib] (partner 0.25 µM)
# Outline: as §1
# Serdemetan + Crizotinib = compound: c1ccc2c(CCNc3ccc(Nc4ccncc4)cc3)c[nH]c2c1 [Serdemetan] + C[C@@H](Oc1cc(-c2cnn(C3CCNCC3)c2)cnc1N)c1c(Cl)ccc(F)c1Cl [Crizotinib] (partner 1 µM)
# Outline: as §1
Cell Line,relative viability (Selisistat + Alpelisib; first compound 0.4 µM),relative viability (Selisistat + Alpelisib; first compound 1.265 µM),relative viability (Selisistat + Alpelisib; first compound 4 µM),relative viability (Selisistat + Alpelisib; first compound 12.65 µM),relative viability (Selisistat + Alpelisib; first compound 40 µM),relative viability (Selisistat + Dasatinib; first compound 0.4 µM),relative viability (Selisistat + Dasatinib; first compound 1.265 µM),relative viability (Selisistat + Dasatinib; first compound 4 µM),relative viability (Selisistat + Dasatinib; first compound 12.65 µM),relative viability (Selisistat + Dasatinib; first compound 40 µM),relative viability (Serdemetan + Foretinib; first compound 0.04 µM),relative viability (Serdemetan + Foretinib; first compound 0.1265 µM),relative viability (Serdemetan + Foretinib; first compound 0.4 µM),relative viability (Serdemetan + Foretinib; first compound 1.265 µM),relative viability (Serdemetan + Foretinib; first compound 4 µM),relative viability (Serdemetan + Crizotinib; first compound 0.04 µM),relative viability (Serdemetan + Crizotinib; first compound 0.1265 µM),relative viability (Serdemetan + Crizotinib; first compound 0.4 µM),relative viability (Serdemetan + Crizotinib; first compound 1.265 µM),relative viability (Serdemetan + Crizotinib; first compound 4 µM)
LXF-289,1.13,1.04,0.989,1,0.984,0.286,0.239,0.305,0.245,0.303,1.02,1.01,0.951,0.62,0.793,0.754,0.776,0.719,0.637,0.689
NCI-H23,0.811,0.871,,0.662,0.688,0.784,0.95,0.571,0.8,0.772,0.891,1.01,0.831,0.791,0.706,0.519,0.421,0.549,0.513,0.321
NCI-H322M,0.932,0.934,,0.734,0.819,0.266,0.259,0.243,0.26,0.26,0.946,0.887,0.909,0.963,0.481,0.917,0.93,0.859,0.917,0.585
NCI-H358,0.865,0.942,,0.932,0.912,0.201,0.158,0.114,0.235,0.226,0.641,0.773,0.732,0.549,0.477,0.599,0.566,0.618,0.593,0.292
NCI-H441,0.804,0.64,,0.691,0.707,0.623,0.671,0.427,0.549,0.62,1.05,0.918,0.981,0.99,0.872,0.721,0.713,0.649,0.487,0.596
NCI-H460,0.517,0.54,,0.403,0.35,0.61,0.513,0.196,0.478,0.477,0.895,1.01,0.883,0.597,0.104,0.842,0.866,0.836,0.154,0.075
NCI-H520,0.762,0.736,1.07,0.957,0.73,0.185,0.201,0.327,0.216,0.195,0.668,0.737,0.874,,0.511,0.692,0.778,0.686,0.687,0.641
NCI-H596,0.587,0.482,0.42,0.502,0.482,0.673,0.53,0.493,0.707,0.545,0.87,0.703,0.684,0.355,0.402,1,0.862,0.914,0.569,0.51
NCI-H647,1.1,1.03,,1.09,1.31,0.229,0.186,0.176,0.154,0.218,1.2,1.15,1.1,1.17,0.801,0.978,1.16,0.983,0.583,0.637
NCI-H650,1.38,,1.47,1.06,1.15,0.427,0.469,0.52,0.382,0.493,0.986,1.01,1.08,0.936,0.777,0.549,0.735,0.636,0.723,0.566
NCI-H661,0.766,0.675,0.555,0.508,0.546,0.806,0.94,0.57,0.726,0.694,1,1.01,1.02,0.924,0.796,1.01,,0.977,,0.987
NCI-H727,0.553,0.714,,,0.458,0.468,0.419,,0.454,0.498,0.831,0.737,1.32,0.634,0.437,1.01,0.638,0.665,0.427,0.439
NCI-H838,1.11,0.971,0.912,1.1,0.954,0.273,0.293,0.263,0.279,0.285,1.03,0.983,1.02,0.951,1.09,0.781,0.886,0.827,0.794,1.01
NCI-H1355,0.936,0.874,,0.862,1.05,0.684,0.688,0.519,0.65,0.789,0.963,0.955,0.798,0.907,0.66,0.97,1,1.02,1.06,0.781
